Experimental data from the NIST ThermoML archive (doi:10.1021/je1000796).
Numbers after ± are expanded uncertainties.

Test: mn = molality of the nth substance listed, in mol/kg
Conditions: 101 kPa, Liquid; for viscosity: Capillary tube (Ostwald / Ubbelohde) method

COC(=O)[C@H](c1ccccc1Cl)N1CCc2sccc2C1.O=S(=O)(O)O [(S)-(+)-Clopidogrel hydrogen sulfate] + CCO
Conditions	mass density [kg/m3]	viscosity [mPa·s]
278.15 K, m1 = 0.001	801 ± 0.9	1.632 ± 0.014
278.15 K, m1 = 0.003	801.6 ± 0.9	1.638 ± 0.014
278.15 K, m1 = 0.005	802.3 ± 0.9	1.645 ± 0.014
278.15 K, m1 = 0.007	802.9 ± 0.9	1.665 ± 0.014
278.15 K, m1 = 0.009	803.5 ± 0.9	1.671 ± 0.014
278.15 K, m1 = 0.011	803.9 ± 0.9	1.674 ± 0.014
278.15 K, m1 = 0.013	804.5 ± 0.9	1.68 ± 0.014
278.15 K, m1 = 0.015	805 ± 0.9	1.687 ± 0.014
283.15 K, m1 = 0.001	798 ± 0.8	1.476 ± 0.013
283.15 K, m1 = 0.003	798.4 ± 0.8	1.484 ± 0.013
283.15 K, m1 = 0.005	798.9 ± 0.8	1.489 ± 0.013
283.15 K, m1 = 0.007	799.3 ± 0.8	1.502 ± 0.013
283.15 K, m1 = 0.009	799.8 ± 0.8	1.505 ± 0.013
283.15 K, m1 = 0.011	800.1 ± 0.8	1.508 ± 0.013
283.15 K, m1 = 0.013	800.6 ± 0.8	1.514 ± 0.013
283.15 K, m1 = 0.015	800.9 ± 0.8	1.523 ± 0.013
288.15 K, m1 = 0.001	794.2 ± 0.8	1.335 ± 0.011
288.15 K, m1 = 0.003	794.5 ± 0.8	1.343 ± 0.011
288.15 K, m1 = 0.005	794.9 ± 0.8	1.346 ± 0.011
288.15 K, m1 = 0.007	795.4 ± 0.8	1.359 ± 0.012
288.15 K, m1 = 0.009	795.9 ± 0.8	1.36 ± 0.012
288.15 K, m1 = 0.011	796.2 ± 0.8	1.361 ± 0.012
288.15 K, m1 = 0.013	796.5 ± 0.8	1.365 ± 0.012
288.15 K, m1 = 0.015	796.8 ± 0.8	1.373 ± 0.012
293.15 K, m1 = 0.001	790.4 ± 0.8	1.211 ± 0.01
293.15 K, m1 = 0.003	790.8 ± 0.7	1.214 ± 0.01
293.15 K, m1 = 0.005	791 ± 0.7	1.223 ± 0.01
293.15 K, m1 = 0.007	791.4 ± 0.7	1.235 ± 0.01
293.15 K, m1 = 0.009	791.8 ± 0.7	1.236 ± 0.011
293.15 K, m1 = 0.011	792.2 ± 0.7	1.238 ± 0.011
293.15 K, m1 = 0.013	792.8 ± 0.7	1.243 ± 0.011
293.15 K, m1 = 0.015	793 ± 0.7	1.25 ± 0.011
298.15 K, m1 = 0.001	786.1 ± 0.8	1.101 ± 0.0095
298.15 K, m1 = 0.003	786.6 ± 0.8	1.103 ± 0.0095
298.15 K, m1 = 0.005	786.9 ± 0.8	1.109 ± 0.0095
298.15 K, m1 = 0.007	787.2 ± 0.8	1.12 ± 0.0096
298.15 K, m1 = 0.009	787.7 ± 0.8	1.121 ± 0.0096
298.15 K, m1 = 0.011	788 ± 0.8	1.123 ± 0.0096
298.15 K, m1 = 0.013	788.4 ± 0.8	1.126 ± 0.0097
298.15 K, m1 = 0.015	788.7 ± 0.8	1.131 ± 0.0097
303.15 K, m1 = 0.001	781.2 ± 0.8	0.9985 ± 0.0086
303.15 K, m1 = 0.003	781.8 ± 0.8	1.003 ± 0.0087
303.15 K, m1 = 0.005	782.1 ± 0.8	1.006 ± 0.0087
303.15 K, m1 = 0.007	782.5 ± 0.8	1.012 ± 0.0087
303.15 K, m1 = 0.009	782.9 ± 0.8	1.015 ± 0.0088
303.15 K, m1 = 0.011	783.2 ± 0.8	1.017 ± 0.0088
303.15 K, m1 = 0.013	783.4 ± 0.8	1.019 ± 0.0088
303.15 K, m1 = 0.015	783.9 ± 0.9	1.023 ± 0.0088
308.15 K, m1 = 0.001	778.2 ± 0.9	0.9134 ± 0.0079
308.15 K, m1 = 0.003	778.5 ± 0.8	0.9149 ± 0.0079
308.15 K, m1 = 0.005	778.7 ± 0.8	0.9166 ± 0.008
308.15 K, m1 = 0.007	778.9 ± 0.8	0.9224 ± 0.008
308.15 K, m1 = 0.009	779.1 ± 0.8	0.9236 ± 0.008
308.15 K, m1 = 0.011	779.4 ± 0.8	0.9256 ± 0.008
308.15 K, m1 = 0.013	779.8 ± 0.9	0.928 ± 0.008
308.15 K, m1 = 0.015	780.2 ± 0.8	0.9307 ± 0.0081
313.15 K, m1 = 0.001	773.7 ± 0.9	0.8328 ± 0.0073
313.15 K, m1 = 0.003	773.9 ± 0.9	0.8348 ± 0.0073
313.15 K, m1 = 0.005	774.2 ± 0.9	0.8359 ± 0.0073
313.15 K, m1 = 0.007	774.5 ± 0.9	0.8409 ± 0.0073
313.15 K, m1 = 0.009	774.8 ± 0.9	0.8441 ± 0.0074
313.15 K, m1 = 0.011	775.2 ± 0.9	0.8458 ± 0.0074
313.15 K, m1 = 0.013	775.7 ± 0.9	0.8473 ± 0.0074
313.15 K, m1 = 0.015	776 ± 0.9	0.8496 ± 0.0074

COC(=O)[C@H](c1ccccc1Cl)N1CCc2sccc2C1.O=S(=O)(O)O [(S)-(+)-Clopidogrel hydrogen sulfate] + CO
Conditions	mass density [kg/m3]	viscosity [mPa·s]
278.15 K, m1 = 0.001	803.1 ± 0.9	0.7441 ± 0.0065
278.15 K, m1 = 0.003	803.5 ± 0.9	0.747 ± 0.0066
278.15 K, m1 = 0.005	804 ± 0.9	0.7487 ± 0.0066
278.15 K, m1 = 0.007	804.4 ± 0.9	0.7505 ± 0.0066
278.15 K, m1 = 0.009	804.8 ± 0.9	0.7525 ± 0.0066
278.15 K, m1 = 0.011	805.2 ± 0.9	0.7529 ± 0.0066
278.15 K, m1 = 0.013	805.9 ± 0.9	0.7577 ± 0.0066
278.15 K, m1 = 0.015	806.4 ± 0.9	0.7582 ± 0.0067
283.15 K, m1 = 0.001	799.2 ± 0.8	0.6924 ± 0.0061
283.15 K, m1 = 0.003	799.5 ± 0.8	0.6943 ± 0.0061
283.15 K, m1 = 0.005	800.1 ± 0.8	0.6961 ± 0.0061
283.15 K, m1 = 0.007	800.4 ± 0.8	0.698 ± 0.0062
283.15 K, m1 = 0.009	801.1 ± 0.9	0.6998 ± 0.0062
283.15 K, m1 = 0.011	801.5 ± 0.8	0.7006 ± 0.0062
283.15 K, m1 = 0.013	802 ± 0.9	0.7039 ± 0.0062
283.15 K, m1 = 0.015	802.6 ± 0.9	0.705 ± 0.0062
288.15 K, m1 = 0.001	795.4 ± 0.8	0.6416 ± 0.0057
288.15 K, m1 = 0.003	795.8 ± 0.8	0.6446 ± 0.0057
288.15 K, m1 = 0.005	796.2 ± 0.8	0.6475 ± 0.0058
288.15 K, m1 = 0.007	796.4 ± 0.8	0.6487 ± 0.0058
288.15 K, m1 = 0.009	797.1 ± 0.8	0.6494 ± 0.0058
288.15 K, m1 = 0.011	797.5 ± 0.8	0.6502 ± 0.0058
288.15 K, m1 = 0.013	798.2 ± 0.8	0.6527 ± 0.0058
288.15 K, m1 = 0.015	799 ± 0.9	0.6538 ± 0.0058
293.15 K, m1 = 0.001	792.3 ± 0.7	0.6006 ± 0.0054
293.15 K, m1 = 0.003	792.5 ± 0.7	0.6022 ± 0.0054
293.15 K, m1 = 0.005	792.9 ± 0.7	0.6042 ± 0.0054
293.15 K, m1 = 0.007	793.3 ± 0.7	0.6049 ± 0.0054
293.15 K, m1 = 0.009	793.6 ± 0.7	0.606 ± 0.0054
293.15 K, m1 = 0.011	794 ± 0.7	0.6077 ± 0.0054
293.15 K, m1 = 0.013	794.5 ± 0.8	0.6096 ± 0.0054
293.15 K, m1 = 0.015	795.3 ± 0.8	0.6111 ± 0.0055
298.15 K, m1 = 0.001	788.1 ± 0.8	0.5596 ± 0.005
298.15 K, m1 = 0.003	788.2 ± 0.8	0.562 ± 0.0051
298.15 K, m1 = 0.005	788.4 ± 0.8	0.5631 ± 0.0051
298.15 K, m1 = 0.007	788.7 ± 0.8	0.5638 ± 0.0051
298.15 K, m1 = 0.009	789 ± 0.8	0.5652 ± 0.0051
298.15 K, m1 = 0.011	789.3 ± 0.8	0.5661 ± 0.0051
298.15 K, m1 = 0.013	790 ± 0.8	0.5684 ± 0.0051
298.15 K, m1 = 0.015	790.8 ± 0.9	0.5694 ± 0.0051
303.15 K, m1 = 0.001	784 ± 0.8	0.5212 ± 0.0047
303.15 K, m1 = 0.003	784.1 ± 0.8	0.5236 ± 0.0047
303.15 K, m1 = 0.005	784.3 ± 0.8	0.5254 ± 0.0048
303.15 K, m1 = 0.007	784.5 ± 0.8	0.5262 ± 0.0048
303.15 K, m1 = 0.009	785 ± 0.8	0.5269 ± 0.0048
303.15 K, m1 = 0.011	785.3 ± 0.8	0.5276 ± 0.0048
303.15 K, m1 = 0.013	785.8 ± 0.9	0.5304 ± 0.0048
303.15 K, m1 = 0.015	786.6 ± 0.9	0.5315 ± 0.0048
308.15 K, m1 = 0.001	779.7 ± 0.8	0.487 ± 0.0044
308.15 K, m1 = 0.003	779.8 ± 0.8	0.4898 ± 0.0045
308.15 K, m1 = 0.005	780 ± 0.8	0.4901 ± 0.0045
308.15 K, m1 = 0.007	780.3 ± 0.8	0.4906 ± 0.0045
308.15 K, m1 = 0.009	780.7 ± 0.9	0.4919 ± 0.0045
308.15 K, m1 = 0.011	781.1 ± 0.9	0.4936 ± 0.0045
308.15 K, m1 = 0.013	781.5 ± 0.9	0.4943 ± 0.0045
308.15 K, m1 = 0.015	782.3 ± 0.9	0.4967 ± 0.0045
313.15 K, m1 = 0.001	775.3 ± 0.9	0.4567 ± 0.0042
313.15 K, m1 = 0.003	775.5 ± 0.9	0.4589 ± 0.0042
313.15 K, m1 = 0.005	775.7 ± 0.9	0.4595 ± 0.0042
313.15 K, m1 = 0.007	775.9 ± 0.9	0.4601 ± 0.0042
313.15 K, m1 = 0.009	776 ± 0.9	0.4604 ± 0.0042
313.15 K, m1 = 0.011	776.4 ± 0.9	0.462 ± 0.0042
313.15 K, m1 = 0.013	777 ± 0.9	0.4631 ± 0.0043
313.15 K, m1 = 0.015	777.8 ± 1	0.4647 ± 0.0043
